# Where “and” joins values, the source holds several entries; their conditions need not be identical. Identical values can stand only once.
# Test system: CCL2
# Experiment: Glycan array analysis of CCL2 (CFG mammalian glycan array V3.1)
# Type: binding, Coprinopsis cinerea
# Details: Alexa Fluor 488 labeled CCL2 200 µg/ml, array V3.1, average of triplicates
# Method: (§1) Purified CCL1 and CCL2 were fluorescently labeled with Alexa Fluor 488 (Invitrogen) according to the manufacturer's protocol and used (at a final concentration of 200 µg/ml) to probe versions 4.2 and 3.1, respectively, of the mammalian glycan array offered by Core H of the Consortium for Functional Glycomics (CFG).
row,Compound,RFU (relative fluorescence units)
1,Neu5Gc2-6Gal1-4GlcNAc-Sp8,182.6 RFU
2,CC(=O)N[C@H]1[C@H](OCCN)O[C@H](CO)[C@@H](O)[C@@H]1O [-GlcNAc–Sp0],172.7 RFU
3,-Neu5Ac–Sp11,119.3 RFU
4,NeuAc2-3[6OSO3]Gal1-4GlcNAc–Sp8,40316.6 RFU
5,"NCCCO[C@@H]1O[C@H](CO)[C@@H](O)[C@H](O)[C@H]1NC(=O)CO [-GlcN(Gc)-Sp8, -GlcN(Gc)- Sp8]",136.2 RFU
6,-GalNAc–Sp8,151.8 RFU and 273.6 RFU
7,C[C@@H]1O[C@@H](OCCCN)[C@H](O)[C@H](O)[C@H]1O [-L-Rha-Sp8],112.5 RFU
8,-GlcNAc–Sp8,160.7 RFU
9,Gal1-3GlcNAc1-2Man1-3(Gal1-3GlcNAc1-2Man1-6)Man1-4GlcNAc1-4GlcNAc-Sp19,453.7 RFU
10,-Neu5Ac-Sp8,122.4 RFU
11,[3OSO3]Gal1-3GlcNAc–Sp8,403.9 RFU
12,"(Gal1-4GlcNAc)2-3,6-GalNAc-Sp8",397.4 RFU
13,[3OSO3]Gal1-4(6OSO3)Glc–Sp0,151.3 RFU
14,[3OSO3]Gal–Sp8,75.5 RFU
15,[6OSO3]Gal1-4Glc–Sp8,269.4 RFU
16,[3OSO3]Gal1-4GlcNAc–Sp0,115.6 RFU
17,Neu5Ac2-8Neu5Ac-Sp17,155.0 RFU
18,9NAcNeu5Ac2-6Gal1-4GlcNAc-Sp8,239.4 RFU
19,[3OSO3]Gal1-4(Fuc1-3)GlcNAc–Sp8,265.1 RFU
20,Gal1-4GlcNAc1-2Man1-3(Gal1-4GlcNAc1-2Man1-6)Man1-4GlcNAc1-,575.8 RFU
21,Neu5Ac2-8Neu5Ac2-8Neu5AcSp8,66.6 RFU
22,[6OSO3]Gal1-4Glc–Sp0,307.4 RFU
23,[6OSO3]Gal1-4GlcNAc–Sp8,133.9 RFU

# Same assay, conditions: fluorescently labeled CCL2 200 µg/ml, array V3.1
row,Compound,binding on glycan array (in words)
1,"CC(=O)N[C@H]1[C@H](O[C@H]2[C@H](O[C@@H]3O[C@@H](C)[C@@H](O)[C@@H](O)[C@@H]3O)[C@@H](NC(C)=O)C(O)O[C@@H]2CO)O[C@H](CO)[C@H](O)[C@@H]1O (stereo partly drawn) [fucosylated LacdiNAc, GalNAcβ1,4[Fucα1,3]GlcNAc]",binds
2,"CC(=O)N[C@H]1C(O)O[C@H](CO)[C@@H](O)[C@@H]1O[C@@H]1O[C@@H](C)[C@@H](O)[C@@H](O)[C@@H]1O (stereo partly drawn) [Fucα1,3GlcNAc]",very low fluorescence

# Same assay, conditions: fluorescently labeled CCL2 200 µg/ml, array V3.1; listed as GalNAcβ1,4[Fucα1,3]GlcNAc
row,Compound,binding on glycan array (in words)
1,"CC(=O)N[C@H]1[C@H](O[C@H]2[C@H](O[C@@H]3O[C@@H](C)[C@@H](O)[C@@H](O)[C@@H]3O)[C@@H](NC(C)=O)C(O)O[C@@H]2CO)O[C@H](CO)[C@H](O)[C@@H]1O (stereo partly drawn) [fucosylated LacdiNAc, GalNAcβ1,4[Fucα1,3]GlcNAc]",one of the best binders

# Test system: CCL1
# Experiment: Glycan array analysis of CCL1 (CFG mammalian glycan array V4.2)
# Type: binding, Coprinopsis cinerea
# Details: Alexa Fluor 488 labeled CCL1 200 µg/ml, array V4.2, average of triplicates
# Method: as §1
row,Compound,RFU (relative fluorescence units)
1,Fuc1-2Gal1-4GlcNAc1-3Gal1-4GlcNAc-Sp0,15 RFU
2,Gal1-3(Fuc1-2)Gal1-4(Fuc1-3)GlcNAc-Sp8,35 RFU
3,[9NAc]Neu5Ac2-6Gal1-4GlcNAc-Sp8,6 RFU
4,GalNAc1-3Gal-Sp8,8 RFU
5,Fuc1-2Gal1-3(Fuc1-4)GlcNAc-Sp8,80 RFU
6,Gal1-3(Fuc1-2)Gal1-4GlcNAc-Sp0,41 RFU
7,Fuc1-2Gal1-4GlcNAc1-3Gal1-4GlcNAc1-3Gal1-4GlcNAc-Sp0,61 RFU
8,Fuc1-3GlcNAc-Sp8,30 RFU and 54 RFU
9,Fuc1-2Gal-Sp8,12 RFU
10,[3OSO3]Gal1-4(Fuc1-3)GlcNAc-Sp8,407 RFU
11,[3OSO3]Gal1-3GlcNAc-Sp8,173 RFU
12,Fuc1-2Gal1-4(Fuc1-3)GlcNAc-Sp0,10 RFU
13,[3OSO3]Gal1-4[6OSO3]GlcNAc-Sp0,293 RFU
14,Fuc1-2Gal1-4(Fuc1-3)GlcNAc1-3Gal1-4(Fuc1-3)GlcNAc-Sp0,54 RFU
15,Gal1-2Gal-Sp8,71 RFU
16,GalNAc1-3Gal1-4Gal1-4GlcNAc-Sp0,18 RFU
17,GalNAc1-4(Fuc1-2)Gal1-4GlcNAc-Sp8,13 RFU
18,[9NAc]Neu5Ac-Sp8,27 RFU
19,Fuc1-4GlcNAc-Sp8,62 RFU
20,GalNAc1-4(Fuc1-3)GlcNAc-Sp0,7887 RFU
21,CC(=O)N[C@H]1[C@H](OCCN)O[C@H](CO)[C@@H](O)[C@@H]1O [GlcNAc-Sp0],6 RFU
22,Fuc1-2Gal1-3GlcNAc-Sp8,18 RFU
23,GalNAc1-3(Fuc1-2)Gal1-4GlcNAc-Sp0,82 RFU
24,Fuc1-2Gal1-4(Fuc1-3)GlcNAc-Sp8,29 RFU
25,[3OSO3]Gal1-4[6OSO3]Glc-Sp8,228 RFU
26,[3OSO3]Gal1-3(Fuc1-4)GlcNAc-Sp8,89 RFU
27,[3OSO3]Gal1-4GlcNAc-Sp0,141 RFU

row,Compound,RFU (relative fluorescence units)
1,Gal1-3(Fuc1-2)Gal1-3GlcNAc-Sp8,31 RFU
2,[3OSO3]Gal1-4(Fuc1-3)Glc-Sp0,140 RFU
3,[3OSO3]Gal1-4(Fuc1-3)[6OSO3]Glc-Sp0,250 RFU
4,GalNAc1-3(Fuc1-2)Gal1-3GlcNAc-Sp0,100 RFU
5,GalNAc1-3(Fuc1-2)Gal-Sp18,19 RFU
6,[6OSO3]Gal1-4Glc-Sp8,9 RFU
7,Fuc1-2Gal1-3GlcNAc-Sp0,3 RFU
8,GalNAc1-3(Fuc1-2)Gal-Sp8,7 RFU and 8 RFU
9,[6OSO3]Gal1-4Glc-Sp0,23 RFU
10,Fuc1-2Gal1-4(Fuc1-3)GlcNAc1-3Gal1-4(Fuc1-3)GlcNAc1-3Gal1-4(Fuc1-3)GlcNAc-Sp0,1835 RFU
11,[3OSO3]Gal-Sp8,42 RFU
12,Fuc1-2Gal1-3GalNAc-Sp14,25 RFU
13,GalNAc-Sp15,148 RFU
14,Gal1-3(Fuc1-2)Gal1-4(Fuc1-3)GlcNAc-Sp0,46 RFU
15,GalNAc1-3(Fuc1-2)Gal1-4(Fuc1-3)GlcNAc-Sp0,75 RFU
16,Fuc1-2Gal1-3GlcNAc1-3Gal1-4Glc-Sp8,1 RFU
17,GalNAc1-4GlcNAc-Sp8,3 RFU
18,GalNAc1-3(Fuc1-2)Gal1-4Glc-Sp0,2 RFU
19,GlcNAc1-2Man1-3(GlcNAc1-2Man1-6)Man1-4GlcNAc1-4GlcNAc-Sp12,90 RFU
20,Gal1-3(Fuc1-2)Gal1-3GlcNAc-Sp0,61 RFU
21,Gal1-4GlcNAc1-2Man1-3(Gal1-4GlcNAc1-2Man1-6)Man1-4GlcNAc1-4GlcNAc-Sp12,121 RFU
22,Fuc1-2Gal1-4GlcNAc-Sp0,52 RFU
23,GlcNAc1-3Gal1-3GalNAc-Sp8,11 RFU
24,GalNAc1-4GlcNAc-Sp0,-11 RFU
25,Fuc1-2Gal1-3GalNAc1-3Gal1-4Gal1-4Glc-Sp9,76 RFU
26,GalNAc1-3GalNAc-Sp8,7 RFU and 14 RFU
27,Neu5Ac2-3[6OSO3]Gal1-4GlcNAc-Sp8,3479 RFU

row,Compound,RFU (relative fluorescence units)
1,Gal-Sp8,99 RFU and 68 RFU
2,Neu5Ac-Sp11,247 RFU
3,[3OSO3]Gal1-4(Fuc1-3)GlcNAc-Sp0,383 RFU
4,Neu5Ac2-6Gal1-4GlcNAc1-2Man1-3(Neu5Ac2-6Gal1-4GlcNAc1-2Man1-6)Man1-4GlcNAc1-4GlcNAc-N(LT)AVL,78 RFU
5,Fuc1-2Gal1-4Glc-Sp0,47 RFU
6,C[C@@H]1O[C@@H](OCCCN)[C@H](O)[C@H](O)[C@H]1O [Rha-Sp8],46 RFU
7,Fuc1-2Gal1-3GalNAc1-4(Neu5Ac2-3)Gal1-4Glc-Sp9,20 RFU
8,Fuc1-2Gal1-3GalNAc1-4(Neu5Ac2-3)Gal1-4Glc-Sp0,5 RFU
9,NCCCO[C@@H]1O[C@H](CO)[C@@H](O)[C@H](O)[C@H]1NC(=O)CO [GlcN(Gc)-Sp8],32 RFU
10,[6OSO3]Gal1-4GlcNAc-Sp8,27 RFU
11,[3OSO3]Gal1-4[6OSO3]Glc-Sp0,329 RFU
12,Gal1-4GlcNAc1-3(Gal1-4GlcNAc1-6)GalNAc-Sp8,24 RFU
13,[3OSO3]Gal1-3GlcNAc-Sp0,93 RFU
14,Fuc1-2Gal1-3GlcNAc1-3Gal1-4Glc-Sp10,20 RFU
15,Fuc1-2Gal1-3GalNAc1-3Gal-Sp9,129 RFU
16,GalNAc1-3(Fuc1-2)Gal1-4GlcNAc-Sp8,25 RFU
17,C[C@@H]1O[C@@H](OCCCN)[C@@H](O)[C@H](O)[C@@H]1O [Fuc-Sp8],26 RFU
18,Neu5Ac-Sp8,113 RFU and 98 RFU
19,Fuc1-2Gal1-4GlcNAc-Sp8,45 RFU
20,Fuc1-2Gal1-3GalNAc-Sp8,70 RFU
21,Neu5Ac2-6Gal1-4GlcNAc1-2Man1-3(Neu5Ac2-6Gal1-4GlcNAc1-2Man1-6)Man1-4GlcNAc1-4GlcNAc-Sp13,86 RFU
22,GlcNAc-Sp8,4 RFU
23,Fuc-Sp9,-10 RFU
24,Man1-3(Man1-6)Man1-4GlcNAc1-4GlcNAc-Sp12,84 RFU
25,[6OSO3]GlcNAc-Sp8,14 RFU

# From article PMC3355094 (PLoS Pathogens, 2012)
